Data from PMC9455983 (International Journal of Molecular Sciences, 2022).
pKi: −log10 of the molar value. Read-outs that look alike come from different tables or passages of the source.

Experiments:
mu-opioid receptor (MOR) = target: T1, mu-opioid receptor (MOR) (Rattus norvegicus, UniProt P33535); test: MOR radioligand competition binding assay ([3H]-DAMGO); conditions: Mu screening results
T1 construct: Rat cortices were homogenized using 50 mM Tris, pH 7.4, and centrifuged at 16,500 rpm for 10 min; from tissue; host or cells: rat cortex membranes
Procedure: MOR binding assay: Rat cortices were homogenized using 50 mM Tris, pH 7.4, and centrifuged at 16,500 rpm for 10 min. The pellets were resuspended in fresh buffer and incubated at 37 °C for 30 min. Following incubation, the suspensions were centrifuged as before, the resulting pellets were resuspended in 100 volumes of 50 mM Tris, pH 7.4 plus 2 mg/mL bovine serum and the suspensions combined. Each assay tube contained 0.5 mL of membrane suspension, 2 nM [^3H]-DAMGO, and 0.02 mg/mL mixture in a total volume of 0.65 mL [13, 45, 53, 55].
(§1) All three binding assays were terminated by filtration through GF/B filters, soaked in 5 mg/mL bovine serum albumin, 50 mM Tris, pH 7.4, on a Tomtec Mach II Harvester 96. The filters were subsequently washed with 6 mL of assay buffer. Bound radioactivity was counted on a Wallac Betaplate Liquid Scintillation Counter. Experiments were conducted using two replicates and repeated twice. Values in Scheme 2 represent the mean ± SD of two experiments with two replicates in each test.

[1] = target: T2, delta-opioid receptor (DOR) (Rattus norvegicus, UniProt P33533); test: DOR radioligand competition binding assay ([3H]-DPDPE); conditions: Delta screening results
T2 construct: Rat cortices were homogenized using 50 mM Tris, pH 7.4, 10 mM MgCl2-6H2O, 200 µM PMSF; from tissue; host or cells: rat cortex membranes
Procedure: DOR binding assay: Rat cortices were homogenized using 50 mM Tris, pH 7.4, 10 mM MgCl2-6H2O, 200 µM PMSF, centrifuged and incubated as above. Each assay tube contained 2 nM [^3H]-DPDPE. Assay tubes were incubated for 2.5 h at 25 °C. Unlabeled DPDPE was used as a competitor to generate a standard curve and determine nonspecific binding.
as §1

[2] = target: T3, kappa-opioid receptor (KOR) (Cavia porcellus, UniProt P41144); test: KOR radioligand competition binding assay ([3H]U69,593); design: species or system guinea pig; conditions: Kappa screening results
T3 construct: Guinea pig cortices and cerebella were homogenized using 50 mM Tris, pH 7.4; from tissue; host or cells: guinea pig cortex and cerebellum membranes
Procedure: KOR binding assay: Guinea pig cortices and cerebella were homogenized using 50 mM Tris, pH 7.4, 10 mM MgCl2-6H2O, […] centrifuged and incubated as above. Each assay tube contained 2 nM [^3H]U69,593. Assay tubes were incubated for 2 h at 25 °C. Unlabeled U50,488 was used as a competitor to generate a standard curve and determine nonspecific binding.
as §1

[3] = experiment 1, unit inferred, read-out: Ki (Exp 1)
[4] = experiment 2, unit inferred, read-out: Ki (Exp 2)
[5] = mean of Exp 1 and Exp 2, unit inferred, read-out: MEAN (Ki)
[6] = mean of two experiments, read-out: Ki
[7] = first Ki column, unit not printed (apparently M), read-out: Ki (first column)
[8] = mean of both Ki, unit inferred, read-out: MEAN (Ki)
[9] = second Ki column, unit not printed (apparently M), read-out: Ki (second column)

Cc1cc(O)cc(C)c1C[C@H]1CN([C@@H](Cc2ccccc2)CN2C(=N)NC[C@@H]2Cc2ccc(O)cc2)C(=N)N1 [1968-20]
pKi (mu-opioid receptor (MOR); [3]): 7.13
pKi (mu-opioid receptor (MOR); [4]): 7.10
pKi (mu-opioid receptor (MOR); [5]): 7.11
pKi (mu-opioid receptor (MOR); [6]): 7.11
pKi [1, 7]: 6.06
pKi [1, 8]: 6.07
pKi [1, 6]: 6.07
pKi [1, 9]: 6.08
pKi [2, 3]: 6.01
pKi [2, 4]: 6.18
pKi [2, 5]: 6.09
pKi [2, 6]: 6.09

Cc1cc(O)cc(C)c1C[C@H]1CNC(=N)N1C[C@H](CC(C)C)N1C[C@H](Cc2ccccc2)NC1=N [1968-57]
pKi (mu-opioid receptor (MOR); [3]): 7.22
pKi (mu-opioid receptor (MOR); [4]): 7.13
pKi (mu-opioid receptor (MOR); [5]): 7.18
pKi (mu-opioid receptor (MOR); [6]): 7.17
pKi [1, 7]: 5.85
pKi [1, 8]: 5.91
pKi [1, 6]: 5.91
pKi [1, 9]: 5.97
pKi [2, 3]: 6.43
pKi [2, 4]: 6.17
pKi [2, 5]: 6.28
pKi [2, 6]: 6.28

Cc1cc(O)cc(C)c1C[C@H]1CN([C@@H](CC(C)C)CN2C(=N)NC[C@@H]2Cc2ccccc2)C(=N)N1 [1968-12]
pKi (mu-opioid receptor (MOR); [3]): 7.17
pKi (mu-opioid receptor (MOR); [4]): 7.18
pKi (mu-opioid receptor (MOR); [5]): 7.18
pKi (mu-opioid receptor (MOR); [6]): 7.17
pKi [1, 7]: 5.71
pKi [1, 8]: 5.73
pKi [1, 6]: 5.73
pKi [1, 9]: 5.76
pKi [2, 3]: 5.99
pKi [2, 4]: 5.89
pKi [2, 5]: 5.94
pKi [2, 6]: 5.94

Cc1cc(O)cc(C)c1C[C@H]1CNC(=N)N1C[C@H](Cc1c(C)cc(O)cc1C)N1C[C@H](CC(C)C)NC1=N [1968-63]
pKi (mu-opioid receptor (MOR); [3]): 7.20
pKi (mu-opioid receptor (MOR); [4]): 7.01
pKi (mu-opioid receptor (MOR); [5]): 7.09
pKi (mu-opioid receptor (MOR); [6]): 7.09
pKi [1, 7]: 5.64
pKi [1, 8]: 5.62
pKi [1, 6]: 5.62
pKi [1, 9]: 5.60
pKi [2, 3]: 5.79
pKi [2, 4]: 5.83
pKi [2, 5]: 5.81
pKi [2, 6]: 5.81

Cc1cc(O)cc(C)c1C[C@H]1CN([C@@H](Cc2c(C)cc(O)cc2C)CN2C(=N)NC[C@@H]2Cc2c(C)cc(O)cc2C)C(=N)N1 [1968-64]
pKi (mu-opioid receptor (MOR); [3]): 7.23
pKi (mu-opioid receptor (MOR); [4]): 7.06
pKi (mu-opioid receptor (MOR); [5]): 7.13
pKi (mu-opioid receptor (MOR); [6]): 7.14
pKi [1, 7]: 6.29
pKi [1, 8]: 6.24
pKi [1, 6]: 6.24
pKi [1, 9]: 6.19
pKi [2, 3]: 5.55
pKi [2, 4]: 5.80
pKi [2, 5]: 5.66
pKi [2, 6]: 5.66

Cc1cc(O)cc(C)c1C[C@H]1CNC(=N)N1C[C@H](Cc1ccccc1)N1C[C@H](CC(C)C)NC1=N [1968-51]
pKi (mu-opioid receptor (MOR); [3]): 6.90
pKi (mu-opioid receptor (MOR); [4]): 6.79
pKi (mu-opioid receptor (MOR); [5]): 6.84
pKi (mu-opioid receptor (MOR); [6]): 6.84
pKi [1, 7]: 5.59
pKi [1, 8]: 5.59
pKi [1, 6]: 5.59
pKi [1, 9]: 5.60
pKi [2, 3]: 6.06
pKi [2, 4]: 6.19
pKi [2, 5]: 6.12
pKi [2, 6]: 6.12

Cc1cc(O)cc(C)c1C[C@H]1CNC(=N)N1C[C@H](Cc1ccccc1)N1C[C@H](Cc2ccc(O)cc2)NC1=N [1968-50]
pKi (mu-opioid receptor (MOR); [3]): 7.21
pKi (mu-opioid receptor (MOR); [4]): 6.94
pKi (mu-opioid receptor (MOR); [5]): 7.06
pKi (mu-opioid receptor (MOR); [6]): 7.06
pKi [1, 7]: 5.96
pKi [1, 8]: 6.05
pKi [1, 6]: 6.05
pKi [1, 9]: 6.16
pKi [2, 3]: 5.72
pKi [2, 4]: 5.76
pKi [2, 5]: 5.74
pKi [2, 6]: 5.74

CC(C)C[C@@H](CN1C(=N)NC[C@@H]1Cc1ccccc1)N1C[C@H](Cc2ccccc2)NC1=N [1968-9]
pKi (mu-opioid receptor (MOR); [3]): 6.07
pKi (mu-opioid receptor (MOR); [4]): 6.02
pKi (mu-opioid receptor (MOR); [5]): 6.05
pKi (mu-opioid receptor (MOR); [6]): 6.05
pKi [1, 7]: 5.01
pKi [1, 8]: 5.11
pKi [1, 6]: 5.11
pKi [1, 9]: 5.24
pKi [2, 3]: 4.94
pKi [2, 4]: 4.96
pKi [2, 5]: 4.95
pKi [2, 6]: 4.95

C[C@H]1CNC(=N)N1C[C@H](Cc1ccccc1)N1C[C@H](Cc2ccccc2)NC1=N [1968-33]
pKi (mu-opioid receptor (MOR); [3]): 5.38
pKi (mu-opioid receptor (MOR); [4]): 5.60
pKi (mu-opioid receptor (MOR); [5]): 5.47
pKi (mu-opioid receptor (MOR); [6]): 5.47
pKi [1, 7]: 4.78
pKi [1, 8]: 4.95
pKi [1, 6]: 4.95
pKi [1, 9]: 5.23
pKi [2, 3]: 4.79
pKi [2, 4]: 4.85
pKi [2, 5]: 4.82
pKi [2, 6]: 4.82
